In US12668600B2 (Kumquat Biosciences Inc., priority 2023, dated 2026):

Legend:
Format in all cases: biochemical
[1] = target: T1, KRAS WT (Homo sapiens, UniProt P01116); assay: HTRF KRAS-SOS1 interaction assay, wildtype KRAS; conditions: binned ≤2 μM / >2 μM, read-out: Inhibition of KRAS WT (IC50)
T1 construct: made in house; host or cells: E. coli, e.g. BL21 (DE3)
Outline: (§1)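 Read-out: HTRF ratio 665/620 nm after ≥10 min incubation of compound with GST-KRAS/anti-GST-Eu and His-hSOS1/anti-6His-XL665. Duplicate dose series, 10 μM down to 0.01 μM. Buffer HEPES pH 7.4, NaCl, DTT, BSA, Igepal.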

[2] = target: T2, KRAS G12D (Homo sapiens, UniProt P01116, G12D); assay: HTRF KRAS-SOS1 interaction assay, KRAS G12D; conditions: binned ≤2 μM / >2 μM, read-out: Inhibition of KRAS G12D (IC50)
T2 construct: made in house; host or cells: E. coli, e.g. BL21 (DE3)
Outline: as §1

[3] = target: T3, KRAS G12V (Homo sapiens, UniProt P01116, G12V); assay: HTRF KRAS-SOS1 interaction assay, KRAS G12V; conditions: binned ≤2 μM / >2 μM, read-out: Inhibition of KRAS G12V (IC50)
T3 construct: made in house; host or cells: E. coli, e.g. BL21 (DE3)
Outline: as §1

[4] = target: T4, KRAS G12S (Homo sapiens, UniProt P01116, G12S); assay: HTRF KRAS-SOS1 interaction assay, KRAS G12S; conditions: binned ≤2 μM / >2 μM, read-out: Inhibition of KRAS G12S (IC50)
T4 construct: made in house; host or cells: E. coli, e.g. BL21 (DE3)
Outline: as §1

T3 sequence (P01116 1-188 isoform P01116-2 G12V): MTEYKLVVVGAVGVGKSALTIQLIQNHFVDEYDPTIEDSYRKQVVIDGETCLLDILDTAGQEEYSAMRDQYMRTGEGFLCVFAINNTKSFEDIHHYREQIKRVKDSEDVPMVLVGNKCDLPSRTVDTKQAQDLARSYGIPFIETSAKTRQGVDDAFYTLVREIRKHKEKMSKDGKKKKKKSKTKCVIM
T4 sequence (P01116 1-188 isoform P01116-2 G12S): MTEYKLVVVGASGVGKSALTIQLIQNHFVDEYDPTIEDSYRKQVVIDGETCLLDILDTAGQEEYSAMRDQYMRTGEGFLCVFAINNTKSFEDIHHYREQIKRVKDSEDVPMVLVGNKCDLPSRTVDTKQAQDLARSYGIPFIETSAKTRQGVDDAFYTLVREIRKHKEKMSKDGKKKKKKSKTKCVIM
T2 sequence (P01116 1-188 isoform P01116-2 G12D): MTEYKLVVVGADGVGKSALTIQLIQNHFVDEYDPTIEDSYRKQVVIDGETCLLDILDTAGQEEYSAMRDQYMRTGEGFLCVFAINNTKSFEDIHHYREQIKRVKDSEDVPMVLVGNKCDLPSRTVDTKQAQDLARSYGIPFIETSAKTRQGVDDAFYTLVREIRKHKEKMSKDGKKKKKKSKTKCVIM
T1 sequence (P01116 1-188 isoform P01116-2): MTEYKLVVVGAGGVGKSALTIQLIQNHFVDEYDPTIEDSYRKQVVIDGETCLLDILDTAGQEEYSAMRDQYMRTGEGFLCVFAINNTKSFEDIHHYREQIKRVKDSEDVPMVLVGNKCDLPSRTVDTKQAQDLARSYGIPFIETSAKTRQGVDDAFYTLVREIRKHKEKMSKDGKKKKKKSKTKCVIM

| IC50 [1] [nM] | IC50 [2] [nM] | IC50 [3] [nM] | IC50 [4] [nM] | Structure (SMILES) |
| --- | --- | --- | --- | --- |
| > 2000 | > 2000 | ≤ 2000 | ≤ 2000 | N#Cc1c(N)sc2c(F)ccc(-c3c(C(F)(F)F)c4c5c(nc(OC[C@@]67CCCN6C[C@H](F)C7)nc5c3F)N([C@H](CCC3CCC3)c3cccnc3N)CCO4)c12 (single isomer, unassigned) [Compound 631] |
| ≤ 2000 | ≤ 2000 | ≤ 2000 | ≤ 2000 | C=CC[C@H](c1cccnc1N)N1CCOc2c(Cl)c(-c3ccc(F)c4sc(N)c(C#N)c34)c(F)c3nc(OC[C@@]45CCCN4C[C@H](F)C5)nc1c23 (atropisomer, axis not shown; (aS)) [Compound 683, 2-amino-4-((R)-4-((R)-1-(2-aminopyridin-3-yl)but-3-en-1-yl)-8-chloro-10-fluoro-2-(((2R,7aS)-2-fluorotetrahydro-1H-pyrrolizin-7a (5H)-yl)methoxy)-5,6-dihydro-4H-[1,4]oxazepino[5,6,7-de]quinazolin-9-yl)-7-fluorobenzo[b]thiophene-3-carbonitrile] |
| ≤ 2000 | ≤ 2000 | ≤ 2000 | ≤ 2000 | CCON=C(C)CC[C@H](c1cccnc1N)N1CCOc2c(C(F)(F)F)c(-c3ccc(F)c4sc(N)c(C#N)c34)c(F)c3nc(OC[C@@]45CCCN4C[C@H](F)C5)nc1c23 (mixture of isomers) [Compound 789, 2-amino-4-(4-((R)-1-(2-aminopyridin-3-yl)-4-(ethoxyimino)pentyl)-10-fluoro-2-(((2R,7aS)-2-fluorotetrahydro-1H-pyrrolizin-7a(5H)-yl)methoxy)-8-(trifluoromethyl)-5,6-dihydro-4H-[1,4]oxazepino[5,6,7-de]quinazolin-9-yl)-7-fluorobenzo[b]thiophene-3-carbonitrile] |
| ≤ 2000 | ≤ 2000 | ≤ 2000 | ≤ 2000 | C#Cc1c(F)ccc2cc(O)cc(-c3nc4c5c(nc(OC[C@@]67CCCN6C[C@H](F)C7)nc5c3F)N(C(C)c3cccnc3N)CCO4)c12 (mixture of isomers) [Compound 742, 4-(10-(1-(2-aminopyridin-3-yl)ethyl)-4-fluoro-2-(((2R,7aS)-2-fluorotetrahydro-1H-pyrrolizin-7a (5H)-yl)methoxy)-9,10-dihydro-8H-7-oxa-1,3,6,10-tetraazacyclohepta[de]naphthalen-5-yl)-5-ethynyl-6-fluoronaphthalen-2-ol] |
| ≤ 2000 | ≤ 2000 | ≤ 2000 | ≤ 2000 | C[C@H](c1cccnc1N)N1CCOc2c(C(F)(F)F)c(-c3ccc(F)c4sc(N)c(C#N)c34)c(F)c3nc(OCC4(CN5CCC6(CC5)CC6(F)F)CC4)nc1c23 (atropisomer, axis not shown) [Compound 613, 2-amino-4-((S)-4-((R)-1-(2-aminopyridin-3-yl)ethyl)-2-((1-((1,1-difluoro-6-azaspiro[2.5]octan-6-yl)methyl)cyclopropyl)methoxy)-10-fluoro-8-(trifluoromethyl)-5,6-dihydro-4H-[1,4]oxazepino[5,6,7-de]quinazolin-9-yl)-7-fluorobenzo[b]thiophene-3-carbonitrile] |
| ≤ 2000 | ≤ 2000 | ≤ 2000 | ≤ 2000 | C[C@H](c1cc(C2CC2)cnc1N)N1CCOc2c(Cl)c(-c3ccc(F)c4sc(N)c(C#N)c34)c(F)c3nc(OC[C@@]45CCCN4C[C@H](F)C5)nc1c23 [Compound 738, 2-amino-4-(4-((R)-1-(2-amino-5-cyclopropylpyridin-3-yl)ethyl)-8-chloro-10-fluoro-2-(((2R,7aS)-2-fluorotetrahydro-1H-pyrrolizin-7a(5H)-yl)methoxy)-5,6-dihydro-4H-[1,4]oxazepino[5,6,7-de]quinazolin-9-yl)-7-fluorobenzo[b]thiophene-3-carbonitrile] |
| ≤ 2000 | ≤ 2000 | ≤ 2000 | ≤ 2000 | CCN(CC)CCC[C@H](c1cccnc1N)N1CCOc2c(C(F)(F)F)c(-c3ccc(F)c4sc(N)c(C#N)c34)c(F)c3nc(OC[C@@]45CCCN4C[C@H](F)C5)nc1c23 (single isomer, unassigned) [Compound 806] |
| ≤ 2000 | ≤ 2000 | ≤ 2000 | ≤ 2000 | Cc1ccc([C@@H](C)N2CCOc3c(Cl)c(-c4ccc(F)c5sc(N)c(C#N)c45)c(F)c4nc(OC[C@@]56CCCN5C[C@H](F)C6)nc2c34)c(N)n1 [Compound 736, 2-amino-4-(4-((R)-1-(2-amino-6-methylpyridin-3-yl)ethyl)-8-chloro-10-fluoro-2-(((2R,7aS)-2-fluorotetrahydro-1H-pyrrolizin-7a(5H)-yl)methoxy)-5,6-dihydro-4H-[1,4]oxazepino[5,6,7-de]quinazolin-9-yl)-7-fluorobenzo[b]thiophene-3-carbonitrile] |
| ≤ 2000 | ≤ 2000 | ≤ 2000 | ≤ 2000 | CO[C@H]1CCN(C)[C@@H]1[C@H](C)Oc1nc2c3c(c(C(F)(F)F)c(-c4ccc(F)c5sc(N)c(C#N)c45)c(F)c3n1)OCCN2[C@H](C)c1cc(Cl)cnc1N [Compound 667, 2-amino-4-(4-((R)-1-(2-amino-5-chloropyridin-3-yl)ethyl)-10-fluoro-2-((S)-1-((2R,3S)-3-methoxy-1-methylpyrrolidin-2-yl)ethoxy)-8-(trifluoromethyl)-5,6-dihydro-4H-[1,4]oxazepino[5,6,7-de]quinazolin-9-yl)-7-fluorobenzo[b]thiophene-3-carbonitrile] |
| ≤ 2000 | ≤ 2000 | ≤ 2000 | ≤ 2000 | C/C=C/[C@H](c1cccnc1N)N1CCOc2c(Cl)c(-c3ccc(F)c4sc(N)c(C#N)c34)c(F)c3nc(OC[C@@]45CCCN4C[C@H](F)C5)nc1c23 (mixture of isomers) [Compound 756, 2-amino-4-(4-((R,E)-1-(2-aminopyridin-3-yl)but-2-en-1-yl)-8-chloro-10-fluoro-2-(((2R,7aS)-2-fluorotetrahydro-1H-pyrrolizin-7a(5H)-yl)methoxy)-5,6-dihydro-4H-[1,4]oxazepino[5,6,7-de]quinazolin-9-yl)-7-fluorobenzo[b]thiophene-3-carbonitrile] |
| ≤ 2000 | ≤ 2000 | ≤ 2000 | ≤ 2000 | C[C@H](Oc1nc2c3c(c(Cl)c(-c4ccc(F)c5sc(N)c(C#N)c45)c(F)c3n1)OCCN2[C@H](C)c1cccnc1N)[C@@H]1CCCN1C (mixture of isomers) [Compound 803, 2-amino-4-(4-((R)-1-(2-aminopyridin-3-yl)ethyl)-8-chloro-10-fluoro-2-((S)-1-((S)-1-methylpyrrolidin-2-yl)ethoxy)-5,6-dihydro-4H-[1,4]oxazepino[5,6,7-de]quinazolin-9-yl)-7-fluorobenzo[b]thiophene-3-carbonitrile] |
| ≤ 2000 | ≤ 2000 | ≤ 2000 | ≤ 2000 | CCO/N=C(\C)CCC[C@H](c1cccnc1N)N1CCOc2c(C(F)(F)F)c(-c3ccc(F)c4sc(N)c(C#N)c34)c(F)c3nc(OC[C@@]45CCCN4C[C@H](F)C5)nc1c23 [Compound 854, 2-amino-4-(4-((R,E)-1-(2-aminopyridin-3-yl)-5-(ethoxyimino)hexyl)-10-fluoro-2-(((2R,7aS)-2-fluorotetrahydro-1H-pyrrolizin-7a(5H)-yl)methoxy)-8-(trifluoromethyl)-5,6-dihydro-4H-[1,4]oxazepino[5,6,7-de]quinazolin-9-yl)-7-fluorobenzo[b]thiophene-3-carbonitrile] |
| ≤ 2000 | ≤ 2000 | ≤ 2000 | ≤ 2000 | CO[C@H]1CCN(C)[C@@H]1COc1nc2c3c(c(C(F)(F)F)c(-c4ccc(F)c5sc(N)c(C#N)c45)c(F)c3n1)OCCN2[C@H](C)c1cc(F)cnc1N (single isomer, unassigned) [Compound 774] |
| ≤ 2000 | ≤ 2000 | ≤ 2000 | ≤ 2000 | C[C@H](c1ccc(C#N)nc1N)N1CCOc2c(Cl)c(-c3ccc(F)c4sc(N)c(C#N)c34)c(F)c3nc(OC[C@@]45CCCN4C[C@H](F)C5)nc1c23 [Compound 851, 6-amino-5-((1R)-1-(9-(2-amino-3-cyano-7-fluorobenzo[b]thiophen-4-yl)-8-chloro-10-fluoro-2-(((2R,7aS)-2-fluorotetrahydro-1H-pyrrolizin-7a(5H)-yl)methoxy)-5,6-dihydro-4H-[1,4]oxazepino[5,6,7-de]quinazolin-4-yl)ethyl)picolinonitrile] |
| ≤ 2000 | ≤ 2000 | ≤ 2000 | ≤ 2000 | CCO/N=C/C1CN2CCC[C@@]2(COc2nc3c4c(c(Cl)c(-c5ccc(F)c6sc(N)c(C#N)c56)c(F)c4n2)OCCN3[C@H](C)c2cccnc2N)C1 (mixture of isomers) [Compound 711, 2-amino-4-(4-((R)-1-(2-aminopyridin-3-yl)ethyl)-8-chloro-2-(((7aS)-2-((E)-(ethoxyimino)methyl)tetrahydro-1H-pyrrolizin-7a(5H)-yl)methoxy)-10-fluoro-5,6-dihydro-4H-[1,4]oxazepino[5,6,7-de]quinazolin-9-yl)-7-fluorobenzo[b]thiophene-3-carbonitrile] |
